The record followed here is US20150368248A1, “2-SUBSTITUTED-6-BIARYLMETHYLAMINO-9-CYCLOPENTYL-9H-PURINE DERIVATIVES, USE THEREOF AS MEDICAMENTS, AND PHARMACEUTICAL COMPOSITIONS” (UNIVERZITA PALACKEHO V OLOMOUCI, priority 2013, published 2015).

The subject of this experiment is caspases-3/7 in Hep3B carcinoma cells. Description: Caspase-3/7 activity in lysates of treated cells (Example 33). The conditions noted are these: 24 h treatment, concentration of 3xIC50. It is filed as cell-based, human. As to the method:
Measurements of proapoptotic properties of BP14 were based on quantification of enzymatic activities of caspases-3/7. For caspase assays, treated cells were harvested by centrifugations and homogenized in an extraction buffer (10 mM KCl, 5 mM Hepes, 1 mM EDTA, 1 mM EGTA, 0.2% CHAPS, inhibitors of proteases, pH 7.4) on ice for 20 min. The homogenates were clarified by centrifugation at 10,000 g for 20 min at 4° C., then proteins were quantified by the Bradford method and diluted to the same concentration. Lysates were then incubated for 5 h with 100 μM Ac-DEVD-AMC as substrate (Sigma-Aldrich) in an assay buffer (25 mM PIPES, 2 mM EGTA, 2 mM MgCl2, 5 mM DTT, pH 7.3). The fluorescence of the product was measured using a Fluoroskan Ascent microplate reader (Labsystems, Helsinki, Finland) at 346 nm/442 nm (ex/em).

As to `NC1CCC(Nc2nc(NCc3ccc(-c4ccco4)nc3)c3ncn(C4CCCC4)c3n2)CC1` (stereo not shown) [BP14, N^2-(4-amino-cyclohexyl)-9-cyclopentyl-N^6-(6-furan-2-yl-pyridin-3-ylmethyl)-9H-purine-2,6-diamine], the “activity of caspase-3/7 compared with the untreated control” value is reported as “twenty-fold increase”.
